Data from patent EP4722212A1, “NOVEL COMPOUND FOR INHIBITING PROTEIN KINASES AND PHARMACEUTICAL COMPOSITION COMPRISING SAME” (Magicbullettherapeutics Co., Ltd., priority 2023, dated 2024).
Like-named read-outs stand apart in the source and are kept apart here.

Key:
Experiment in all cases: Kinase panel
Format in all cases: biochemical
BRSK1 = BRSK1 (Homo sapiens, UniProt Q8TDC3); conditions: BRSK1, 1 µM; read-out: residual enzyme activity
Outline: (§1)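 Biochemical full-panel kinase assay with compounds tested at a single concentration of 1 µM. Values are residual enzyme activity. Kinases were flagged when residual activity was 40% or less, i.e. inhibition of 60% or more.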

BMX/ETK = BMX/ETK (Homo sapiens, UniProt P51813); conditions: read-out: residual enzyme activity
Outline: as §1

PKG2/PRKG2 = PKG2/PRKG2 (Homo sapiens, UniProt Q13237); conditions: PKG2/PRKG2, 1 µM; read-out: residual enzyme activity
Outline: as §1

TYRO3/SKY = TYRO3/SKY (Homo sapiens, UniProt Q06418); conditions: read-out: residual enzyme activity
Outline: as §1

CDC7/DBF4 = CDC7/DBF4 (Homo sapiens, UniProt O00311); conditions: CDC7/DBF4, 1 µM; read-out: residual enzyme activity
Outline: as §1

FRK/PTKS = FRK/PTKS (Homo sapiens, UniProt P42685); conditions: read-out: residual enzyme activity
Outline: as §1

FGR = FGR (Homo sapiens, UniProt P09769); conditions: read-out: residual enzyme activity
Outline: as §1

PYK2 = PYK2 (Homo sapiens, UniProt Q14289); conditions: PYK2, 1 µM; read-out: residual enzyme activity
Outline: as §1

MARK3 = MARK3 (Homo sapiens, UniProt P27448); conditions: MARK3, 1 µM; read-out: residual enzyme activity
Outline: as §1

PHKG2 = PHKG2 (Homo sapiens, UniProt P15735); conditions: PHKg2, 1 µM; read-out: residual enzyme activity
Outline: as §1

CK1A1 = CK1A1 (Homo sapiens, UniProt P48729); conditions: read-out: residual enzyme activity
Outline: as §1

ARK5/NUAK1 = ARK5/NUAK1 (Homo sapiens, UniProt O60285); conditions: read-out: residual enzyme activity
Outline: as §1

EPHAS = EPHAS (Homo sapiens, UniProt P29322); conditions: read-out: residual enzyme activity
Outline: as §1

PIM2 = PIM2 (Homo sapiens, UniProt Q9P1W9); conditions: PIM2, 1 µM; read-out: residual enzyme activity
Outline: as §1

FMS = FMS (Homo sapiens, UniProt P07333); conditions: read-out: residual enzyme activity
Outline: as §1

SBK1 = SBK1 (Homo sapiens, UniProt Q52WX2); conditions: SBK1, 1 µM; read-out: residual enzyme activity
Outline: as §1

MEKK6 = MEKK6 (Homo sapiens, UniProt O95382); conditions: MEKK6, 1 µM; read-out: residual enzyme activity
Outline: as §1

STK16 = STK16 (Homo sapiens, UniProt O75716); conditions: STK16, 1 µM; read-out: residual enzyme activity
Outline: as §1

ERK2/MAPK1 = ERK2/MAPK1 (Homo sapiens, UniProt P28482); conditions: ERK2/MAPK1, 1 µM; read-out: residual enzyme activity
Outline: as §1

RIPK4 = RIPK4 (Homo sapiens, UniProt P57078); conditions: RIPK4, 1 µM; read-out: residual enzyme activity
Outline: as §1

YSK4/MAP3K19 = YSK4/MAP3K19 (Homo sapiens, UniProt Q56UN5); conditions: YSK4/MAP3K19, 1 µM; read-out: residual enzyme activity
Outline: as §1

P38B/MAPK11 = P38B/MAPK11 (Homo sapiens, UniProt Q15759); conditions: read-out: residual enzyme activity
Outline: as §1

SIK2 = SIK2 (Homo sapiens, UniProt Q9H0K1); conditions: SIK2, 1 µM; read-out: residual enzyme activity
Outline: as §1

CAMK2G = CAMK2G (Homo sapiens, UniProt Q13555); conditions: read-out: residual enzyme activity
Outline: as §1

MEK1 = MEK1 (Homo sapiens, UniProt Q02750); conditions: MEK1, 1 µM; read-out: residual enzyme activity
Outline: as §1

ULK3 = ULK3 (Homo sapiens, UniProt Q6PHR2); conditions: ULK3, 1 µM; read-out: residual enzyme activity
Outline: as §1

PKG1A = PKG1A (Homo sapiens, UniProt Q13976); conditions: read-out: residual enzyme activity
Outline: as §1

HIPK3 = HIPK3 (Homo sapiens, UniProt Q9H422); conditions: HIPK3, 1 µM; read-out: residual enzyme activity
Outline: as §1

MST1/STK4 = MST1/STK4 (Homo sapiens, UniProt Q13043); conditions: MST1/STK4, 1 µM; read-out: residual enzyme activity
Outline: as §1

VRK1 = VRK1 (Homo sapiens, UniProt Q99986); conditions: VRK1, 1 µM; read-out: residual enzyme activity
Outline: as §1

PRKX = PRKX (Homo sapiens, UniProt P51817); conditions: read-out: residual enzyme activity
Outline: as §1

NEK6 = NEK6 (Homo sapiens, UniProt Q9HC98); conditions: NEK6, 1 µM; read-out: residual enzyme activity
Outline: as §1

TTBK1 = TTBK1 (Homo sapiens, UniProt Q5TCY1); conditions: TTBK1, 1 µM; read-out: residual enzyme activity
Outline: as §1

Chain of BRSK1 (Q8TDC3 whole entry, species assumed): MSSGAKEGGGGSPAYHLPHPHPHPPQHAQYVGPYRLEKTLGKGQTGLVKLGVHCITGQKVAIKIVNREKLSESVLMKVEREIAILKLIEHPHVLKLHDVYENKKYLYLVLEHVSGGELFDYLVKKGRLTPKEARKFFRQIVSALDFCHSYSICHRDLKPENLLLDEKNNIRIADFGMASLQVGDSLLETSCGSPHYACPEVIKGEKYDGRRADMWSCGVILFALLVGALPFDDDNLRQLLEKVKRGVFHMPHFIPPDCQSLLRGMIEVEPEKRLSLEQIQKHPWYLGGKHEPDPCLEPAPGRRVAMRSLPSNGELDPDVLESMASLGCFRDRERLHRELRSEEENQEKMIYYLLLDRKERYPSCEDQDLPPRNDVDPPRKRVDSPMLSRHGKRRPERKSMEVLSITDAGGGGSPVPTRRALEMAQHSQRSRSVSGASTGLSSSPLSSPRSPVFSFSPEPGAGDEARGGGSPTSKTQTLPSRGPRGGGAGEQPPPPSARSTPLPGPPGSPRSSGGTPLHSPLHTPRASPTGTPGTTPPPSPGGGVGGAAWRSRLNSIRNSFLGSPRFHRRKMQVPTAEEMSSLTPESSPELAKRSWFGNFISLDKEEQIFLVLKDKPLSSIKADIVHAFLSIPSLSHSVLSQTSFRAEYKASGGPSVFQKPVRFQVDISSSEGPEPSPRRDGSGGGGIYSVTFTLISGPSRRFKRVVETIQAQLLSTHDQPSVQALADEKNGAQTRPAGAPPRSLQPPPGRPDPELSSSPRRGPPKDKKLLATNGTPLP
Chain of MEKK6 (O95382 whole entry, species assumed): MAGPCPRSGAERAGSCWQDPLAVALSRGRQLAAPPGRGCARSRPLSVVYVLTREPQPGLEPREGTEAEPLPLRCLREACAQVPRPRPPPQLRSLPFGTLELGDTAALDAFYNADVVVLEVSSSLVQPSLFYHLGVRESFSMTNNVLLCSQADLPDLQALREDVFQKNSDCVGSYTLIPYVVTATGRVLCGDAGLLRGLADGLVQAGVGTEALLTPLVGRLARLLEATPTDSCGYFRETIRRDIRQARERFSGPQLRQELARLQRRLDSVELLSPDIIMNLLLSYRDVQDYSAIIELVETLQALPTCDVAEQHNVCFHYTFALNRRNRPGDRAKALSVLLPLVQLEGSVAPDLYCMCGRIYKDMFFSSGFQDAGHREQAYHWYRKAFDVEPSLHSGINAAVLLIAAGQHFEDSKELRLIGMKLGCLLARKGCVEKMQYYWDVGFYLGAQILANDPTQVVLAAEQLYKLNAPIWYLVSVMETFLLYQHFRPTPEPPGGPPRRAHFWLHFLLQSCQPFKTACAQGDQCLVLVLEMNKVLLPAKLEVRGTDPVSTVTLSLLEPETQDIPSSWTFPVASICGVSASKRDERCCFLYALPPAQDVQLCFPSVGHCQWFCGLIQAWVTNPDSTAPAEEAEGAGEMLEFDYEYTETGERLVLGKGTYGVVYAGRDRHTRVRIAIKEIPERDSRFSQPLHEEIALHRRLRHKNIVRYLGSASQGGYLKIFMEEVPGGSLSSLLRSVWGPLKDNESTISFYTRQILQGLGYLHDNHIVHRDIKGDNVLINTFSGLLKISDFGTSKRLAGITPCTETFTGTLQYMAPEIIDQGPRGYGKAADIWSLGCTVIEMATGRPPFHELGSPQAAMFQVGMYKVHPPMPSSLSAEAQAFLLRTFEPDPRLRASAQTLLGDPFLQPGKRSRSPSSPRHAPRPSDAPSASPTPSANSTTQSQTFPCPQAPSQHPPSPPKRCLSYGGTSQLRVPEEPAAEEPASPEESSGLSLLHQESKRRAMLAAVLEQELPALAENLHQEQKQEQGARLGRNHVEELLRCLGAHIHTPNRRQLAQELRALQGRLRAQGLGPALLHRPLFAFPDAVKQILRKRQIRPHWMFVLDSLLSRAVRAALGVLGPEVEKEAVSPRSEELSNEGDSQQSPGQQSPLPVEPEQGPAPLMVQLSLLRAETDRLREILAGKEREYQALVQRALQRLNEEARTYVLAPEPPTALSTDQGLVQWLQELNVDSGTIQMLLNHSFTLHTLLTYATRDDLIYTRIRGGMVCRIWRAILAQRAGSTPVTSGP
Chain of PKG2/PRKG2 (Q13237 whole entry): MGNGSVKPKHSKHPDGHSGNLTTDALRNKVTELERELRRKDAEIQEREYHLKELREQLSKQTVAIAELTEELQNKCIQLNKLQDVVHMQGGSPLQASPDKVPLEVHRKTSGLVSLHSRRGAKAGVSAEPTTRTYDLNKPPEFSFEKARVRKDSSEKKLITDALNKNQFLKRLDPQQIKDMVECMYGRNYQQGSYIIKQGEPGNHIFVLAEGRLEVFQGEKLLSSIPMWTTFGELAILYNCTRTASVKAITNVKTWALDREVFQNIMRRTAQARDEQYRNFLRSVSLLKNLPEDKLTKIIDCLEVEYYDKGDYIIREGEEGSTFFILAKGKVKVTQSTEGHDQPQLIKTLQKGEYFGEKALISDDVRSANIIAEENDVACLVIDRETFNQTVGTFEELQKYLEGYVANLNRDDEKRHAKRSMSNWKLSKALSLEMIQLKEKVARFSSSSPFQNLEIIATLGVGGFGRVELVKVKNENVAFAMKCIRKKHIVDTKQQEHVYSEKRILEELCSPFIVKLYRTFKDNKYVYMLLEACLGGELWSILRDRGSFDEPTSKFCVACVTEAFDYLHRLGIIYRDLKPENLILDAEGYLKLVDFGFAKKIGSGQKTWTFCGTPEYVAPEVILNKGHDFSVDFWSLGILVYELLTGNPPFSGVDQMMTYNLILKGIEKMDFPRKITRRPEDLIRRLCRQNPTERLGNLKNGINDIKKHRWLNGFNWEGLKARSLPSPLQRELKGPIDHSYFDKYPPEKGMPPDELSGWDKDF
Chain of FRK/PTKS (P42685 whole entry): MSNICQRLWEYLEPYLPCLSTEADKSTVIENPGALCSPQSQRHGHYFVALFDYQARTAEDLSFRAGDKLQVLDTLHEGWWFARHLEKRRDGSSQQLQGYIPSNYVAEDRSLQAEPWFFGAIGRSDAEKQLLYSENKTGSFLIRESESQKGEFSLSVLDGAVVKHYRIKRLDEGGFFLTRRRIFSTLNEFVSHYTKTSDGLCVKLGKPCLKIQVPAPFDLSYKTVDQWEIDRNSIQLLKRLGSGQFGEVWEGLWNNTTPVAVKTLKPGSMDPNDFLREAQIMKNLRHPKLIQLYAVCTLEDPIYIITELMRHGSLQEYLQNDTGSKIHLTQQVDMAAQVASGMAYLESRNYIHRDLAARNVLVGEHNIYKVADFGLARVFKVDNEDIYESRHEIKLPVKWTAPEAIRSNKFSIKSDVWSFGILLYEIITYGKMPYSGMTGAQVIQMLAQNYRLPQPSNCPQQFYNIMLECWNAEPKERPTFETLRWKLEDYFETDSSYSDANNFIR
Chain of MEK1 (Q02750 whole entry, species assumed): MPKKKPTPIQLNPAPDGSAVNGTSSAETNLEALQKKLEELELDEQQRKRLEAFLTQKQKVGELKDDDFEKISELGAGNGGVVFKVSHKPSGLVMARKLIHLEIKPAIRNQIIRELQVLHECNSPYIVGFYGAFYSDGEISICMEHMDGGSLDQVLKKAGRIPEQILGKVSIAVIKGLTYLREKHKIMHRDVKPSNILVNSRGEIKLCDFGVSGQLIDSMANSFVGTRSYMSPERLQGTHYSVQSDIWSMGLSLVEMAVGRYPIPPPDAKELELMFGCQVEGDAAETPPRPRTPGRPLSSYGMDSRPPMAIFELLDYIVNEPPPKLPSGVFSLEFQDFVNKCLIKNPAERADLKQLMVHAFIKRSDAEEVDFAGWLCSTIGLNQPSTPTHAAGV
Chain of STK16 (O75716 whole entry, species assumed): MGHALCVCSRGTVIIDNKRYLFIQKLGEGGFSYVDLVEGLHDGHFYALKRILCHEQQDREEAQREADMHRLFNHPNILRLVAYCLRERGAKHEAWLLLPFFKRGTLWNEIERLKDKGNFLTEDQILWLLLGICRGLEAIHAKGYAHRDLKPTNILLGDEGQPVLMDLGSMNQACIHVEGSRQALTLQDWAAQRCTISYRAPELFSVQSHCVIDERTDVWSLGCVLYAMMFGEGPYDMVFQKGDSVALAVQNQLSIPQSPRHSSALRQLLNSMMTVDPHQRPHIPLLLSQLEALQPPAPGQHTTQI
Chain of PYK2 (Q14289 whole entry, species assumed): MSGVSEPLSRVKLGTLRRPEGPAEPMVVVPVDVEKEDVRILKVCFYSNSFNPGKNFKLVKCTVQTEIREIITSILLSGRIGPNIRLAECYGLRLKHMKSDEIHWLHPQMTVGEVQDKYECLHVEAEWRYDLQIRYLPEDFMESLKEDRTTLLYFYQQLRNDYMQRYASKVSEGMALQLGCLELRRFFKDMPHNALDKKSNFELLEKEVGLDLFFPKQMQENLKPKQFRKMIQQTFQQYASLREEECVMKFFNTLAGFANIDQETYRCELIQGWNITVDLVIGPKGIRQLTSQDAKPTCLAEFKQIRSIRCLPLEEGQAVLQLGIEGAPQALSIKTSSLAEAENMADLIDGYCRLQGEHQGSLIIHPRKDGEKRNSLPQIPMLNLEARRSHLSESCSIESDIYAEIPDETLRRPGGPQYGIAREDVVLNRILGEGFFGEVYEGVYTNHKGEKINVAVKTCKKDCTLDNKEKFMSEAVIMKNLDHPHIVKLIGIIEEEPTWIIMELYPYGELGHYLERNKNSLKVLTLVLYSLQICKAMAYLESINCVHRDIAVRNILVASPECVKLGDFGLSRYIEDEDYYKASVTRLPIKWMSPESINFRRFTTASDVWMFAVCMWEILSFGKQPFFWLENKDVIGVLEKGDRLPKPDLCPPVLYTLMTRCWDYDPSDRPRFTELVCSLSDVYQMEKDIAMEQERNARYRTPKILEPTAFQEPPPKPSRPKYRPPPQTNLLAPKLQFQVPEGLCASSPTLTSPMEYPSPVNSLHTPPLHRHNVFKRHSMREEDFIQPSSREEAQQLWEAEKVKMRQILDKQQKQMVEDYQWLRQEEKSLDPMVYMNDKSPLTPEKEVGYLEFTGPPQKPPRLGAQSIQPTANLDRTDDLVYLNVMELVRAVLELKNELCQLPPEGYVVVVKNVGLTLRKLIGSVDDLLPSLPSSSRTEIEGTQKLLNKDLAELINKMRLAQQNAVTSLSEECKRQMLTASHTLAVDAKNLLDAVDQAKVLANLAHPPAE

Structure (SMILES) | remaining activity at 1 µM (BRSK1) | remaining activity at 1 µM (BMX/ETK) | remaining activity at 1 µM (PKG2/PRKG2) | remaining activity at 1 µM (TYRO3/SKY) | remaining activity at 1 µM (CDC7/DBF4) | remaining activity at 1 µM (FRK/PTKS) | remaining activity at 1 µM (FGR) | remaining activity at 1 µM (PYK2) | remaining activity at 1 µM (MARK3) | remaining activity at 1 µM (PHKG2) | remaining activity at 1 µM (PIM2) | remaining activity at 1 µM (FMS) | remaining activity at 1 µM (SBK1) | remaining activity at 1 µM (MEKK6) | remaining activity at 1 µM (STK16) | remaining activity at 1 µM (ERK2/MAPK1) | remaining activity at 1 µM (RIPK4) | remaining activity at 1 µM (YSK4/MAP3K19) | remaining activity at 1 µM (SIK2) | remaining activity at 1 µM (MEK1) | other results
Cc1cn(-c2cc(C(=O)Nc3ccc(C)c(N4Cc5cnc(NC6CC6)nc5C5(CC5)C4=O)c3)cc(C(F)(F)F)c2)cn1 [Compound 8, N-(3-(2'-(cyclopropylamino)-7'-oxo-5'H-spiro[cyclopropane-1,8'-pyrido[4,3-d]pyrimidine]-6'(7'H)-yl)-4-methylphenyl)-3-(4-methyl-1H-imidazol-1-yl)-5-(trifluoromethyl)benzamide] | > 40% | ≤ 40% | > 40% | > 40% | > 40% | ≤ 40% | ≤ 40% | ≤ 40% | > 40% | > 40% | > 40% | ≤ 40% | > 40% | > 40% | > 40% | > 40% | > 40% | ≤ 40% | > 40% | > 40% | remaining activity at 1 µM (CK1A1; CK1A1, 1 µM): > 40%; remaining activity at 1 µM (ARK5/NUAK1; ARK5/NUAK1, 1 µM): > 40%; remaining activity at 1 µM (EPHAS; EPHAS (row 110), 1 µM): ≤ 40%; remaining activity at 1 µM (P38B/MAPK11; P38B/MAPK11, 1 µM): ≤ 40%; remaining activity at 1 µM (CAMK2G; CAMK2G): > 40%; remaining activity at 1 µM (ULK3): > 40%; remaining activity at 1 µM (PKG1A; PKG1A): > 40%; remaining activity at 1 µM (HIPK3): > 40%; remaining activity at 1 µM (MST1/STK4): > 40%; remaining activity at 1 µM (VRK1): > 40%; remaining activity at 1 µM (PRKX): > 40%; remaining activity at 1 µM (NEK6): > 40%; remaining activity at 1 µM (TTBK1): > 40%
Cc1ccc(Nc2ncc3c(n2)C2(CC2)C(=O)N(c2cc(NC(=O)c4cccc(C(F)(F)F)c4)ccc2C)C3)cn1 [Compound 51, N-(4-methyl-3-(2'-((6-methylpyridin-3-yl)amino)-7'-oxo-5'H-spiro[cyclopropane-1,8'-pyrido[4,3-d]pyrimidine]-6'(7'H)-yl)phenyl)-3-(trifluoromethyl)benzamide] | > 40% | ≤ 40% | > 40% | ≤ 40% | > 40% | ≤ 40% | ≤ 40% | ≤ 40% | > 40% | > 40% | > 40% | ≤ 40% | > 40% | > 40% | > 40% | > 40% | > 40% | ≤ 40% | ≤ 40% | > 40% | remaining activity at 1 µM (CK1A1; CKlal, 1 µM): > 40%; remaining activity at 1 µM (ARK5/NUAK1; ARKS/NUAKl, 1 µM): > 40%; remaining activity at 1 µM (EPHAS; EPHA8, 1 µM): ≤ 40%; remaining activity at 1 µM (P38B/MAPK11; P38b/MAPK11, 1 µM): ≤ 40%; remaining activity at 1 µM (CAMK2G; CAMK2g): > 40%; remaining activity at 1 µM (ULK3): > 40%; remaining activity at 1 µM (PKG1A; PKGla): > 40%; remaining activity at 1 µM (HIPK3): > 40%; remaining activity at 1 µM (MST1/STK4): > 40%; remaining activity at 1 µM (VRK1): > 40%; remaining activity at 1 µM (PRKX): > 40%; remaining activity at 1 µM (NEK6): > 40%; remaining activity at 1 µM (TTBK1): > 40%
